Assay results from patent publication US9809582B2, “Aminoester derivatives” (CHIESI FARMACEUTICI S.p.A., priority 2015, dated 2017).
Where two headings read alike, the source gives them in different places.

How the values were obtained:
Human recombinant PDE4B2 = Human recombinant PDE4B2 (Homo sapiens (Human), UniProt Q07343); assay: PDE4B2 HTRF assay; assay type: biochemical
Experimental: PDE4B2 activity is detected using the LANCE Ultra cAMP homogeneous time resolved fluorescence resonance energy transfer (TR-FRET) assay from Perkin Elmer. The assay is based on the competition between the europium (Eu) chelate-labeled cAMP tracer and sample cAMP for binding sites on cAMP-specific monoclonal antibodies (mAb) labelled with the ULight™ dye. The assay is carried out in 384-well low volume plates in a volume of 10 μl. Human recombinant PDE4B2 (80 pM) is incubated for 2 h with 3 nM cAMP in buffer containing 1×HBSS, 5 mM HEPES, 3 mM MgCl2, 0.1% BSA, pH 7.4 with or without test compounds. The enzymatic reactions are efficiently stopped by the addition of 500 μM IBMX present in the combined Stop/Detection buffer containing europium (Eu) chelate-labeled cAMP tracer and cAMP-specific monoclonal antibodies (mAb) labelled with the ULight™ dye. […] IC50 values are determined from competition curves using a non-linear curve fitting program.

Human M3 receptor = Human M3 receptor (Homo sapiens (Human), UniProt P20309); assay: M3 receptor radioligand binding assay
Experimental: M3 Receptor Radioligand Binding Assay:
The assay is carried out in 96-well polypropylene plates in a volume of 250 μl. […] The final assay concentration of DMSO is 0.5% (v/v). The plates are sealed and incubated for 2 h at room temperature on an orbital shaker (slow speed). Membranes are harvested onto 96-well unifilter GF/C filter plates pre-treated with 0.5% polyethyleneimine (v/v), using a filter manifold, washed four times with […] of assay buffer. The plates are dried before addition of 50 μl of microscint-0, sealed then read in a Trilux Microbeta scintillation counter. IC50 values are determined from competition curves using a non-linear curve fitting program. Ki values are calculated from IC50 values by the Cheng and Prusoff equation.

[1] = M3 Receptor radioligand binding assay, read-out: M3 IC50 Activity

Human M3 receptor, sequence (P20309 whole entry): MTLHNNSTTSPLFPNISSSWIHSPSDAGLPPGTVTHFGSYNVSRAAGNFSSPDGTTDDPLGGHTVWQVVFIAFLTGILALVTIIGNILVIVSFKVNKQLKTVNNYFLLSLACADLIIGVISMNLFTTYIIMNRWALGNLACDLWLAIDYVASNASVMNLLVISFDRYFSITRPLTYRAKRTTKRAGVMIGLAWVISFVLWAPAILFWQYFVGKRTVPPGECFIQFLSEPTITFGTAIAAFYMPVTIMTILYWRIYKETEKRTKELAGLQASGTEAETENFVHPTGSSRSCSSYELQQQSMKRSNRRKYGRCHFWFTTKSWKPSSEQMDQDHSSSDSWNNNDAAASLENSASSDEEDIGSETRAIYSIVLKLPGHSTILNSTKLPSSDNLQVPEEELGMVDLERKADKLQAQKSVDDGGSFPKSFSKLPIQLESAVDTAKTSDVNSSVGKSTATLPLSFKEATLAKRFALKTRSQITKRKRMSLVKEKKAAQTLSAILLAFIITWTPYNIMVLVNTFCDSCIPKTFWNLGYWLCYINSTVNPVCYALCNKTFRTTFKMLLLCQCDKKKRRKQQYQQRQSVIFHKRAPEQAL
Human recombinant PDE4B2, sequence (Q07343 other isoform, or with tags, fused parts or gaps): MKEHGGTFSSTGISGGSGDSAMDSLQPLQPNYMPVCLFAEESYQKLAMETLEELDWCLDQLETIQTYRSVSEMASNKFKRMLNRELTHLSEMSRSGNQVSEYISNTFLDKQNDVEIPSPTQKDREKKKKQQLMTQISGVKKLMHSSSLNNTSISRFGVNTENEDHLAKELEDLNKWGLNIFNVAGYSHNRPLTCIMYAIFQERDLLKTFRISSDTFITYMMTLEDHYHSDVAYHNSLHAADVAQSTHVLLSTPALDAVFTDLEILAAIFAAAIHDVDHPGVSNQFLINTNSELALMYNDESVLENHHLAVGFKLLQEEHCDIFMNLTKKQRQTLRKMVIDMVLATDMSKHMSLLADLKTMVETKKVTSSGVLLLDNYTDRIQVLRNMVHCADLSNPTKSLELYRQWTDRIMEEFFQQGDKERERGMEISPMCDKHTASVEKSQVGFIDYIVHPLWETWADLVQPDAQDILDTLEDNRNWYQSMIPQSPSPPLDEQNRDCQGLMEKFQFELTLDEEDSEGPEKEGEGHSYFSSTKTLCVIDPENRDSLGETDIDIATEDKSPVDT

Compound | IC50 (Human M3 receptor; [1]) [µM] | other results
COc1ccc([C@H](Cc2c(Cl)c[n+]([O-])cc2Cl)OC(=O)c2ccc(CN(C)CC(C)(C(=O)O[C@H]3CN4CCC3CC4)c3ccccc3)s2)cc1OC (stereo partly drawn) [Example 27, [(1S)-2-(3,5-dichloro-1-oxido-pyridin-1-ium-4-yl)-1-(3,4-dimethoxyphenyl)ethyl] 5-[[methyl-[2-methyl-3-oxo-2-phenyl-3-[(3R)-quinuclidin-3-yl]oxy-propyl]amino]methyl]thiophene-2-carboxylate] | – | IC50 (Human recombinant PDE4B2; read-out: PDE4B2 IC50 Activity): 0.001 to 0.01 µM
COc1ccc([C@H](Cc2c(Cl)c[n+]([O-])cc2Cl)OC(=O)c2ccc(CNCC(C)(C(=O)OC3CCN(C)CC3)c3ccccc3)s2)cc1OC (stereo partly drawn) [Example 8, [(1S)-2-(3,5-dichloro-1-oxido-pyridin-1-ium-4-yl)-1-(3,4-dimethoxyphenyl)ethyl] 5-[[[2-methyl-3-[(1-methyl-4-piperidyl)oxy]-3-oxo-2-phenyl-propyl]amino]methyl]thiophene-2-carboxylate] | 0.01 to 0.1 | –
COc1ccc([C@H](Cc2c(Cl)c[n+]([O-])cc2Cl)OC(=O)c2ccc(CNCC(C)(C(=O)OC3CCN(C)CC3)c3ccccc3)s2)cc1OC (stereo partly drawn) [Example 24, [(1S)-2-(3,5-dichloro-1-oxido-pyridin-1-ium-4-yl)-1-(3,4-dimethoxyphenyl)ethyl] 5-[[[2-methyl-3-[(1-methyl-4-piperidyl)oxy]-3-oxo-2-phenyl-propyl]amino]methyl]thiophene-2-carboxylate] | 0.01 to 0.1 | –
COc1ccc([C@H](Cc2c(Cl)c[n+]([O-])cc2Cl)OC(=O)c2ccc(CNCC(C)(C(=O)OCCN(C)C)c3ccccc3)s2)cc1OC (stereo partly drawn) [Example 9, [(1S)-2-(3,5-dichloro-1-oxido-pyridin-1-ium-4-yl)-1-(3,4-dimethoxyphenyl)ethyl] 5-[[[3-(2-dimethylaminoethyloxy)-2-methyl-3-oxo-2-phenyl-propyl]amino]methyl]thiophene-2-carboxylate] | 0.01 to 0.1 | –
COc1ccc([C@H](Cc2c(Cl)c[n+]([O-])cc2Cl)OC(=O)c2ccc(CN3CC(C(=O)O[C@H]4CN5CCC4CC5)(c4ccccc4)C3)s2)cc1OC [Example 15, [(3R)-quinuclidin-3-yl]-1-[[5-[(1S)-2-(3,5-dichloro-1-oxido-pyridin-1-ium-4-yl)-1-(3,4-dimethoxyphenyl)ethoxy]carbonyl-2-thienyl]methyl]-3-phenyl-azetidine-3-carboxylate] | – | IC50 (Human recombinant PDE4B2): 0.001 to 0.01 µM
COc1ccc([C@H](Cc2c(Cl)c[n+]([O-])cc2Cl)OC(=O)c2ccc(CNCC(C(=O)OC3CCN(C)CC3)c3ccccc3)s2)cc1OC (stereo partly drawn) [Example 5, [(1S)-2-(3,5-dichloro-1-oxido-pyridin-1-ium-4-yl)-1-(3,4-dimethoxyphenyl)ethyl] 5-[[[3-[(1-methyl-4-piperidyl)oxy]-3-oxo-2-phenyl-propyl]amino]methyl]thiophene-2-carboxylate] | 0.001 to 0.01 | –
COc1ccc([C@H](Cc2c(Cl)c[n+]([O-])cc2Cl)OC(=O)c2ccc(CNCC(C)(C(=O)O[C@H]3CN4CCC3CC4)c3ccccc3)s2)cc1OC (stereo partly drawn) [Example 30, [(1S)-2-(3,5-dichloro-1-oxido-pyridin-1-ium-4-yl)-1-(3,4-dimethoxyphenyl)ethyl] 5-[[[2-methyl-3-oxo-2-phenyl-3-[(3R)-quinuclidin-3-yl]oxy-propyl]amino]methyl]thiophene-2-carboxylate] | – | IC50 (Human M3 receptor; M3 IC50 Activity): 0.001 to 0.01 µM
COc1ccc([C@H](Cc2c(Cl)c[n+]([O-])cc2Cl)OC(=O)c2ccc(CNC3CC(C(=O)O[C@H]4CN5CCC4CC5)(c4ccccc4)C3)s2)cc1OC (stereo partly drawn) [Example 36, [(1S)-2-(3,5-dichloro-1-oxido-pyridin-1-ium-4-yl)-1-(3,4-dimethoxyphenyl)ethyl] 5-[[[3-phenyl-3-[(3R)-quinuclidin-3-yl]oxycarbonyl-cyclobutyl]amino]methyl]thiophene-2-carboxylate] | – | IC50 (Human recombinant PDE4B2; read-out: PDE4B2 IC50 Activity): 0.001 to 0.01 µM
COc1ccc([C@H](Cc2c(Cl)c[n+]([O-])cc2Cl)OC(=O)c2ccc(CNCC(C)(C(=O)OCCN(C)C)c3ccccc3)s2)cc1OC (single isomer, unassigned) [Example 28] | 0.01 to 0.1 | –
